Test [1] has as its target T1, y-mtRNAP–Mtf1 (ΔN100 y-mtRNAP with Mtf1) (Saccharomyces cerevisiae, UniProt P13433).
T1 construct: gene RPO41; RPO41 lacking 100 N-terminal residues, His6 tag removed by TEV; Mtf1 His6-tagged (removal not described); both from E. coli; complex assembled on pre-melted promoter DNA; with Mitochondrial transcription factor 1
T1 sequence (P13433 101-1351): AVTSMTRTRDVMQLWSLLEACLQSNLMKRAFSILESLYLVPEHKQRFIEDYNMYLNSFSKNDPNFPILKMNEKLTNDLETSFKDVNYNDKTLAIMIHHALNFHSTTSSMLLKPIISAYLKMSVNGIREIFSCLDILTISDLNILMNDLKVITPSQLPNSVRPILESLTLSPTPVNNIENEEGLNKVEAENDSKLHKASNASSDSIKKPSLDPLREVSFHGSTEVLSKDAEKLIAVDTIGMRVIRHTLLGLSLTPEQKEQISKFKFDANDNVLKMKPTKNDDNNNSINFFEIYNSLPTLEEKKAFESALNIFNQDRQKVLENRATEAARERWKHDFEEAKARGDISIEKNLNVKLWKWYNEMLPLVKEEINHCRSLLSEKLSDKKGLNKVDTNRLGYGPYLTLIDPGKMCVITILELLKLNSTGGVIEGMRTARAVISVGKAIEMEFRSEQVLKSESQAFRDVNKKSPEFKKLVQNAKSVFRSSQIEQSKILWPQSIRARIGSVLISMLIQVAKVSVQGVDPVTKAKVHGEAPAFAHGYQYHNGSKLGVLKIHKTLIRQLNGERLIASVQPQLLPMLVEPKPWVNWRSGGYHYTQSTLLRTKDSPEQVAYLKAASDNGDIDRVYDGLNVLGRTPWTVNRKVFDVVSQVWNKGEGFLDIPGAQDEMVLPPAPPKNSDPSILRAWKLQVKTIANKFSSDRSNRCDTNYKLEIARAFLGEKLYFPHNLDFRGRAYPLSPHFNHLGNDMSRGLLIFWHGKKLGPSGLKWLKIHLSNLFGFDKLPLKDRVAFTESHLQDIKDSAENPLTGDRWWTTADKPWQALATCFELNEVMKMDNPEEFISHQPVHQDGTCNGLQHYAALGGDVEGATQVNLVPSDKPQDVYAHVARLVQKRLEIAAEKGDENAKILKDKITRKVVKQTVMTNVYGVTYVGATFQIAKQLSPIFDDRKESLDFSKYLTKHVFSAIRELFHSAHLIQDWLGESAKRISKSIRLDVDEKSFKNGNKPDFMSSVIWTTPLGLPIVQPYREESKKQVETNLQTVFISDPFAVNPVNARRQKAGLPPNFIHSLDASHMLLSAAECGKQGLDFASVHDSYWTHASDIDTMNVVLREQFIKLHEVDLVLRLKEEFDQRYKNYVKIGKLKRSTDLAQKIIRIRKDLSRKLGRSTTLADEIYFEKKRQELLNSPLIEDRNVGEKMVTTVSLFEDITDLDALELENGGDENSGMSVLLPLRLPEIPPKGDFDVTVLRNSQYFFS
T1 sequence (P14908 2-341 partner): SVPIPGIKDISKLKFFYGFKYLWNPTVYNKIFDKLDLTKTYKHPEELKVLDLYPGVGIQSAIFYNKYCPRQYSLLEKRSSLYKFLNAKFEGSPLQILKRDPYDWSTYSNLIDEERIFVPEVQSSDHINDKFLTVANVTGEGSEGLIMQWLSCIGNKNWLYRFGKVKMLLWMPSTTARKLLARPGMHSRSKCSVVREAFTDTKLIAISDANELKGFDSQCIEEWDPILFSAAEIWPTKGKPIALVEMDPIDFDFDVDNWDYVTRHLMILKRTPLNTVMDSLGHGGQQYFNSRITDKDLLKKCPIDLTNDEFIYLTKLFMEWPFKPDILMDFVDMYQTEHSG
As to the kind of experiment: cryo-EM structure (IC2, […] Å). It counts as binding. Conditions: pre-melted 33-bp bubble promoter DNA; Mg2+; pH 7.0; 4 °C; two GTP at +1 (P site) and +2 (N site) of polymerase active site.

Test [2] addresses T2, ΔN100 y-mtRNAP (yeast mitochondrial RNA polymerase, Rpo41, 100 amino-terminal residues deleted) (S. cerevisiae, UniProt P13433 101-1351).
T2 construct: S. cerevisiae mitochondrial RNA polymerase Rpo41 (y-mtRNAP), UniProt P13433; 100 amino-terminal residues deleted; end residue S1351; Plasmid ProEXHTB; In the structures the chain is traced only from I386 (A407 in IC4) to S1351 with gaps; source: E. coli BL21 RIL Codon Plus, purified (DEAE/Ni-Sepharose, heparin, TEV cleavage, second Ni-Sepharose flow-through)
T2 sequence (looked up): T1 sequence (P13433 101-1351)
Briefly: cryo-EM structure; PmIC of ΔN100 y-mtRNAP, Mtf1 and pre-melted bubble promoter DNA (molar ratio 1:1.2:1.2, 2 h, 4 °C), purified by SEC, then incubated with NTPs or pppGpG 2 h at 4 °C to give IC2, IC4-IC8 and IC8'; 50 mM Bis-tris propane pH 7.0, 100 mM NaCl, 5 mM MgCl2, 1 mM EDTA, 2 mM DTT. Conditions: both partners purified. On the technique in general: Size exclusion chromatography separates by hydrodynamic size, large species first.

For `Nc1nc2c(ncn2[C@@H]2O[C@H](COP(=O)(O)OP(=O)(O)OP(=O)(O)O)[C@@H](O)[C@H]2O)c(=O)[nH]1` [GTP], the “cryo-EM structure (IC2, 3.47 Å)” value in test [1] is given as “IC2 was captured with two GTP molecules bound at the transcription start site poised for catalysis”.

B1: Mtf1 (yeast mitochondrial transcription factor) (natural protein, S. cerevisiae)
chain: T1 sequence (P14908 2-341 partner)
notes: S. cerevisiae Mtf1, mitochondrial transcription factor; wild type; traced in the structures from S2 to at most G341 (end residue); Plasmid pTrcHisC; No removal of the His6 tag is described; N-terminal domain residues 1-252, C-terminal domain residues 255-341 are named, so the whole protein is likely; source: E. coli BL21, purified (DEAE/Ni-Sepharose, heparin-Sepharose)
Turning to B1, the binding result in test [2] is “binds”.

For the origin of these results see article PMC10600007, “Structures illustrate step-by-step mitochondrial transcription initiation” (Nature, 2023).
